Measurements taken from patent US20230321012A1 (priority 2021, published 2023).

What was measured:
[1] = mouse, in vivo
[2] = clinical; settings: for Cmax / Tmax / AUC(0-t): human
Description: Clinical Trial Outline. […] All solid tumor types are eligible for the trial. […] An expansion cohort was included at the RP2D level to confirm safety and tolerability of the combination. […] In Part 2, patients were treated by giving both agents twice daily (BID dosing schedule).
Plasma samples were analyzed for AMXT 1501 concentration via a LC/MS^2 procedure (MI-0028-DB-AB; Agilux Laboratories, Worcester, Massachusetts), and the resulting concentration versus time data were used to estimate individual PK parameters using noncompartmental analysis (NCA).

[3] = Part 1 Cohort 1, 80 mg QD, Cycle 1 Day 1
[4] = Part 1 Cohort 1, 80 mg QD, Cycle 1 Day 14
[5] = Part 1 Cohort 1, 80 mg QD, Cycle 1 Day 28, +DFMO 500 mg/day
[6] = Part 1 Cohort 2, 160 mg QD, Cycle 1 Day 1
[7] = Part 1 Cohort 2, 160 mg QD, Cycle 1 Day 14
[8] = Part 1 Cohort 2, 160 mg QD, Cycle 1 Day 28, +DFMO 500 mg/day
[9] = Part 1 Cohort 3, 400 mg QD, Cycle 1 Day 14
[10] = Part 1 Cohort 3, 400 mg QD, Cycle 1 Day 28, +DFMO 500 mg/day
[11] = Part 1 Cohort 3, 400 mg QD, Day 1
[12] = Part 1 Cohort 4, 1200 mg QD, Cycle 1 Day 1
[13] = Part 1 Cohort 4, 1200 mg QD, Cycle 1 Day 14
[14] = Part 1 Cohort 5, 1800 mg QD, Cycle 1 Day 1
[15] = Part 1 Cohort 5, 1800 mg QD, Cycle 1 Day 14
[16] = Part 1 Cohort 5, 1800 mg QD, Cycle 1 Day 28, +DFMO 500 mg/day
[17] = Part 1 Cohort 5, 1800 mg QD, Cycle 2 Day 14, n=1

Compound: CCCCCCCCCCCCCCCC(=O)NCCCC[C@@H](N)C(=O)NCCCNCCCCNCCCN [AMXT 1501, D-lys(palmitoyl)-spermine]
- effect of DFMO on AMXT 1501 tumor retention [1]: no effect
- tumor AUC, AMXT 1501 [1]: 152,000 hr*ng/mL
- tumor AUC0-∞, AMXT 1501 ([1]; sc, 2.5 mg/kg): 138,000 hr*ng/mL
- Cohort 5 patient AUC versus mouse plasma AUC at efficacious dose ([2]; Cohort 5 patients vs 2.5 mg/kg SC in 4T1 mice): 1.72 times
- Tlast Mean [2, 3]: 13.2 h
- Tlast Median [2, 3]: 6 h
- Tlast Mean [2, 4]: 12 h
- Tlast Median [2, 4]: 6 h
- Tlast Mean [2, 5]: 18 h
- Tlast Median [2, 5]: 24 h
- Tlast Mean [2, 6]: 15 h
- Tlast Median [2, 6]: 15 h
- Tlast Mean [2, 7]: 15 h
- Tlast Median [2, 7]: 15 h
- Tlast Mean [2, 8]: 10.5 h
- Tlast Median [2, 8]: 6 h
- Tlast Mean [2, 9]: 19.5 h
- Tlast Median [2, 9]: 24 h
- Tlast Mean [2, 10]: 24 h
- Tlast Median [2, 10]: 24 h
- Tlast Mean [2, 11]: 25.5 h
- Tlast Median [2, 11]: 24 h
- Tlast Mean [2, 12]: 40 h
- Tlast Median [2, 12]: 24 h
- Tlast Mean [2, 13]: 24 h
- Tlast Median [2, 13]: 24 h
- Tlast Mean [2, 14]: 54 h
- Tlast Median [2, 14]: 60 h
- Tlast Mean [2, 15]: 24 h
- Tlast Median [2, 15]: 24 h
- Tlast Mean [2, 16]: 24 h
- Tlast Median [2, 16]: 24 h
- Tlast Mean [2, 17]: 24 h
- Tlast Median [2, 17]: 24 h
- sustained plasma level versus predicted efficacious concentration (100 nM, 57 ng/mL) ([2]; adult patients, 1,200 mg or 800 mg per day, split BID): above this predicted efficacious concentration value
- Cmax ([2]; in vivo, 160 mg, Cmax Mean, Part 1 Cohort 2, 160 mg QD, Cycle 1 Day 1): 19.5 ng/mL
- Tmax ([2]; in vivo, 1800 mg, Tmax Mean, Part 1 Cohort 5, 1800 mg QD, Cycle 1 Day 1): 10.5 h
- AUC(0-t) ([2]; plasma, oral, 80 mg, AUC0-6 hr Mean, Part 1 Cohort 1, 80 mg QD, Cycle 1 Day 1): 29.6 ng·h/mL
- AUC(0-t) ([2]; plasma, oral, 80 mg, AUC0-6 hr Mean, Part 1 Cohort 1, 80 mg QD, Cycle 1 Day 14): 91 ng·h/mL
- AUC(0-t) ([2]; plasma, oral, 80 mg, AUC0-6 hr Median, Part 1 Cohort 1, 80 mg QD, Cycle 1 Day 1): 29.9 ng·h/mL
- AUC(0-t) ([2]; plasma, oral, 80 mg, AUC0-6 hr Median, Part 1 Cohort 1, 80 mg QD, Cycle 1 Day 14): 51.3 ng·h/mL
- AUC(0-t) ([2]; plasma, oral, 80 mg, AUC0-t Mean, Part 1 Cohort 1, 80 mg QD, Cycle 1 Day 1): 92 ng·h/mL
- AUC(0-t) ([2]; plasma, oral, 80 mg, AUC0-t Mean, Part 1 Cohort 1, 80 mg QD, Cycle 1 Day 14): 262 ng·h/mL
- AUC(0-t) ([2]; plasma, oral, 80 mg, AUC0-t Median, Part 1 Cohort 1, 80 mg QD, Cycle 1 Day 1): 45.3 ng·h/mL
- AUC(0-t) ([2]; plasma, oral, 80 mg, AUC0-t Median, Part 1 Cohort 1, 80 mg QD, Cycle 1 Day 14): 51.3 ng·h/mL
- Cmax ([2]; plasma, oral, 80 mg, Cmax Mean, Part 1 Cohort 1, 80 mg QD, Cycle 1 Day 1): 11.7 ng/mL
- Cmax ([2]; plasma, oral, 80 mg, Cmax Mean, Part 1 Cohort 1, 80 mg QD, Cycle 1 Day 14): 26.2 ng/mL
- Cmax ([2]; plasma, oral, 80 mg, Cmax Median, Part 1 Cohort 1, 80 mg QD, Cycle 1 Day 1): 10.6 ng/mL
- Cmax ([2]; plasma, oral, 80 mg, Cmax Median, Part 1 Cohort 1, 80 mg QD, Cycle 1 Day 14): 13.8 ng/mL
- Tmax ([2]; plasma, oral, 80 mg, Tmax Mean, Part 1 Cohort 1, 80 mg QD, Cycle 1 Day 1): 4.8 h
- Tmax ([2]; plasma, oral, 80 mg, Tmax Mean, Part 1 Cohort 1, 80 mg QD, Cycle 1 Day 14): 4.67 h
- Tmax ([2]; plasma, oral, 80 mg, Tmax Median, Part 1 Cohort 1, 80 mg QD, Cycle 1 Day 1): 4 h
- Tmax ([2]; plasma, oral, 80 mg, Tmax Median, Part 1 Cohort 1, 80 mg QD, Cycle 1 Day 14): 4 h
- AUC(0-t) ([2]; plasma, oral, 160 mg, AUC0-6 hr Mean, Part 1 Cohort 2, 160 mg QD, Cycle 1 Day 1): 74.8 ng·h/mL
- AUC(0-t) ([2]; plasma, oral, 160 mg, AUC0-6 hr Mean, Part 1 Cohort 2, 160 mg QD, Cycle 1 Day 14): 43.4 ng·h/mL
- AUC(0-t) ([2]; plasma, oral, 160 mg, AUC0-6 hr Median, Part 1 Cohort 2, 160 mg QD, Cycle 1 Day 1): 67.1 ng·h/mL
- AUC(0-t) ([2]; plasma, oral, 160 mg, AUC0-6 hr Median, Part 1 Cohort 2, 160 mg QD, Cycle 1 Day 14): 49.8 ng·h/mL
- AUC(0-t) ([2]; plasma, oral, 160 mg, AUC0-t Mean, Part 1 Cohort 2, 160 mg QD, Cycle 1 Day 1): 169 ng·h/mL
- AUC(0-t) ([2]; plasma, oral, 160 mg, AUC0-t Mean, Part 1 Cohort 2, 160 mg QD, Cycle 1 Day 14): 105 ng·h/mL
- AUC(0-t) ([2]; plasma, oral, 160 mg, AUC0-t Median, Part 1 Cohort 2, 160 mg QD, Cycle 1 Day 1): 130 ng·h/mL
- AUC(0-t) ([2]; plasma, oral, 160 mg, AUC0-t Median, Part 1 Cohort 2, 160 mg QD, Cycle 1 Day 14): 59.7 ng·h/mL
- Cmax ([2]; plasma, oral, 160 mg, Cmax Mean, Part 1 Cohort 2, 160 mg QD, Cycle 1 Day 14): 14.1 ng/mL
- Cmax ([2]; plasma, oral, 160 mg, Cmax Median, Part 1 Cohort 2, 160 mg QD, Cycle 1 Day 1): 17.8 ng/mL
- Cmax ([2]; plasma, oral, 160 mg, Cmax Median, Part 1 Cohort 2, 160 mg QD, Cycle 1 Day 14): 16.2 ng/mL
- Tmax ([2]; plasma, oral, 160 mg, Tmax Mean, Part 1 Cohort 2, 160 mg QD, Cycle 1 Day 1): 4 h
- Tmax ([2]; plasma, oral, 160 mg, Tmax Mean, Part 1 Cohort 2, 160 mg QD, Cycle 1 Day 14): 5 h
- Tmax ([2]; plasma, oral, 160 mg, Tmax Median, Part 1 Cohort 2, 160 mg QD, Cycle 1 Day 1): 4 h
- Tmax ([2]; plasma, oral, 160 mg, Tmax Median, Part 1 Cohort 2, 160 mg QD, Cycle 1 Day 14): 5 h
- AUC(0-t) ([2]; plasma, oral, 400 mg, AUC0-6 hr Mean, Part 1 Cohort 3, 400 mg QD, Cycle 1 Day 14): 289 ng·h/mL
- AUC(0-t) ([2]; plasma, oral, 400 mg, AUC0-6 hr Mean, Part 1 Cohort 3, 400 mg QD, Day 1): 183 ng·h/mL
- AUC(0-t) ([2]; plasma, oral, 400 mg, AUC0-6 hr Median, Part 1 Cohort 3, 400 mg QD, Cycle 1 Day 14): 304 ng·h/mL
- AUC(0-t) ([2]; plasma, oral, 400 mg, AUC0-6 hr Median, Part 1 Cohort 3, 400 mg QD, Day 1): 207 ng·h/mL
- AUC(0-t) ([2]; plasma, oral, 400 mg, AUC0-t Mean, Part 1 Cohort 3, 400 mg QD, Cycle 1 Day 14): 957 ng·h/mL
- AUC(0-t) ([2]; plasma, oral, 400 mg, AUC0-t Mean, Part 1 Cohort 3, 400 mg QD, Day 1): 714 ng·h/mL
- AUC(0-t) ([2]; plasma, oral, 400 mg, AUC0-t Median, Part 1 Cohort 3, 400 mg QD, Cycle 1 Day 14): 1100 ng·h/mL
- AUC(0-t) ([2]; plasma, oral, 400 mg, AUC0-t Median, Part 1 Cohort 3, 400 mg QD, Day 1): 906 ng·h/mL
- Cmax ([2]; plasma, oral, 400 mg, Cmax Mean, Part 1 Cohort 3, 400 mg QD, Cycle 1 Day 14): 66.4 ng/mL
- Cmax ([2]; plasma, oral, 400 mg, Cmax Mean, Part 1 Cohort 3, 400 mg QD, Day 1): 47 ng/mL
- Cmax ([2]; plasma, oral, 400 mg, Cmax Median, Part 1 Cohort 3, 400 mg QD, Cycle 1 Day 14): 73.5 ng/mL
- Cmax ([2]; plasma, oral, 400 mg, Cmax Median, Part 1 Cohort 3, 400 mg QD, Day 1): 52.5 ng/mL
- Tmax ([2]; plasma, oral, 400 mg, Tmax Mean, Part 1 Cohort 3, 400 mg QD, Cycle 1 Day 14): 5 h
